Experimental data from US7030126B2, “Use of polyamine analogs for amyotrophic lateral sclerosis” (ALS Therapy Development Foundation, Inc., priority 2001, dated 2006).
Read-outs that look alike come from different tables or passages of the source.

How the values were obtained:
SOD1 G93A mice [1] = tested on: SOD1 G93A mice
Text: (vi) Neurological Scoring: Neurological score of each limb was monitored and recorded according to a defined 4-point scale defined below: […]

SOD1 G93A mice [2] = experiment: DENSPM in SOD-1 (G93A) mouse model of ALS: survival and neurological score; format: in vivo; settings: female mice
Text: (§1) Survival in the mouse is copy dependent.
Results are shown in FIGS. 12 and 13 and described below.

[3] = tested on: cellular concentrations of putrescine, spermidine and spermine; settings: cited from earlier work
[4] = tested on: patients with advanced non-small cell lung cancer; settings: Phase I; cited from earlier work
SOD1 G93A mice [5] = experiment: Discontinuous dosing of DFMO in SOD-1 (G93A) mouse model of ALS: survival and neurological score; format: in vivo
Text: as §1
(§2) Controls animals were given water as vehicle.
Results are shown in FIGS. 2 and 3 and described below.

SOD1 G93A mice [6] = experiment: Continuous dosing of DFMO in SOD-1 (G93A) mouse model of ALS: survival and neurological score; format: in vivo
Method: as §1, §2
During this study, DFMO was delivered chronically at a dose of 3200 mg/Kg/day in drinking water […] without any drug holiday until death according to the methods described in Example 1. Results are shown in FIGS. 4–9 and described below.

SOD1 G93A mice [7] = experiment: Ongoing IP injection study of DFMO in SOD1 G93A mice; format: in vivo, mouse; settings: 3200 mg/kg
Text: Studies are currently underway to analyze polyamines in male vs. female mSOD1 mice and wild-type mice. While positive effects are seen in male mice, the effect is less reliable at current doses. Differences in polyamine synthesis and regulation exist between the sexes and may account for the different observed effects. […] Higher plasma concentration of DFMO can be achieved by systemic delivery as opposed to oral delivery.

[8] = 24 mg/kg/day IP twice daily till death, FIG. 12

NC(=O)NO [hydroxyurea]
onset of ALS disease (SOD1 G93A mice [1]; 250 mg/Kg/day IP once daily, day 50 to day 110): delays the onset of ALS disease | life span / survival (SOD1 G93A mice [1]; female mice, 250 mg/Kg/day IP once daily, day 50 to day 110, FIG. 10): extended the life span | neurological score analysis, effect (SOD1 G93A mice [1]; female mice, 250 mg/Kg/day IP, FIG. 11): protective

CCNCCCNCCCNCCCNCC [DENSPM, N(1),N(11)-diethylnorspermine]
onset of disease (SOD1 G93A mice [2]; [8]): delays the onset of disease | survival (SOD1 G93A mice [2]; [8]): extends the survival | neurological score analysis, effect (SOD1 G93A mice [2]; 24 mg/kg/day IP twice daily, FIG. 13): protective | cellular concentrations of putrescine, spermidine and spermine [3]: reduce | toxicity in patients [4]: minimal toxicity

NCCCC(N)(C(=O)O)C(F)F (racemic) [DFMO, 2-(Difuoromethyl)-DL-ornithine]
onset of disease (SOD1 G93A mice [5]; 3200 mg/Kg/day in drinking water, 21 days on, 7 day drug holiday): delays the onset of disease | survival (SOD1 G93A mice [5]; 3200 mg/Kg/day in drinking water, 21 days on, 7 day drug holiday, FIG. 2): extends the survival | neurological score analysis, effect (SOD1 G93A mice [5]; combined male and female results, discontinuous delivery): No effect | neurological score analysis, effect (SOD1 G93A mice [5]; female mice, during drug delivery period, discontinuous delivery, FIG. 3): protective | deaths of animals in the treatment group that occurred during the drug holiday or a few days immediately succeeding the holiday (SOD1 G93A mice [5]; female mice, 3200 mg/Kg/day in drinking water, 21 days on, 7 day drug holiday, FIG. 2): 70% | total female effect (SOD1 G93A mice [5]; female mice, discontinuous delivery, FIG. 3): 3.5% | neurological score analysis, effect (SOD1 G93A mice [5]; male mice, discontinuous delivery): No effect | onset of disease (SOD1 G93A mice [6]; 3200 mg/Kg/day in drinking water, no drug holiday): delays the onset of disease | life span / survival (SOD1 G93A mice [6]; 3200 mg/Kg/day in drinking water, no drug holiday, FIGS. 4, 6 and 8): extended the life span | neurological score analysis, effect (SOD1 G93A mice [6]; combined male and female, continuous delivery, FIG. 5): protective | effect (SOD1 G93A mice [6]; female mice, continuous delivery): 11.48% | neurological score analysis, effect (SOD1 G93A mice [6]; female mice, continuous delivery, FIG. 9): protective | total combined effect (SOD1 G93A mice [6]; male and female combined, continuous delivery, Cox proportional hazard, litter effect as frailty term, p=0.02): 9.69% | effect (SOD1 G93A mice [6]; male mice, continuous delivery): 8.21% | neurological score analysis, effect (SOD1 G93A mice [6]; male mice, continuous delivery, FIG. 7): protective | trend in male mice (SOD1 G93A mice [7]): positive male trend
